Laboratory results published in patent US12576097B2, “Anti-tumor effective component of Hedyotis diffusa, preparation method therefor and use thereof” (Guangdong New Ear Life Technology Co., Ltd., priority 2020, dated 2026).
“Also recorded” adds a separate entry of the source. Marks after values point to notes of the source that are not given here.

Legend:
[1] = test system: human liver cancer Hep-G2 cells; experiment: Inhibition rate on human liver cancer Hep-G2 cells (CCK-8); type: cell-based; conditions: 24 h; for inhibition rate: 3 mg/mL drug solutions
Description: A cryopreservation tube containing liver cancer Hep-G2 cells was taken out from a liquid nitrogen tank, quickly placed in a water bath at 38-39° C., and continuously shaken to be fully thawed within 1 min. The cryopreservation tube was centrifuged at 800 r/min for 9 min, and sprayed with 75% alcohol on the outside thereof, and then put into a ultra-clean table. The resulting supernatant was sucked and discarded. 1 ml of DMEM complete medium was added, and a mixture of the cells and the DMEM complete medium was blown evenly, and then the cells were transferred to a 25 ml culture dish. 6-8 ml of DMEM complete medium was added, and a mixture of the cells and the DMEM complete medium was gently blown evenly, and put into a constant temperature incubator at 37° C. with 5% CO2.
The old medium in the item 2.1 was sucked out. 2 ml of PBS buffer solution was added, and the cells were washed by gently shaking the culture flask. The PBS buffer solution was sucked out to remove the loose, dead and senescent cells and their metabolic wastes, and the cells were washed for 2-3 times. 2 ml of trypsin was added, and the culture dish was gently shaken for 30 s. After the trypsin was sucked out, the culture dish was put into the incubator for full digestion for 3 min, and 2 ml of fresh DMEM complete culture was added. The cells were gently blown and dispersed into individual cells under a microscope, and then 6-8 ml of fresh DMEM complete medium was added and the cells were incubated in a constant temperature incubator.
2 mL trypsin was added into the cells cultured in the item 2.2 in the logarithmic growth phase and the cells were digested for 30 s. After the trypsin was sucked out, the culture dish was placed into the incubator for full digestion for 3 min, and 2 mL of fresh medium was added. The cells were gently blown to disperse the cells into individual cells under the microscope. 10 μL of cell suspension and 10 μL of 0.4% Trypan blue staining solution were mixed well to fully stain the cells. 10 μL of the stained cell suspension was added to a cell counting plate, and the number of cells was counted by a fully automatic cell counter. The cell suspension was diluted to 2×10^5 cells/mL with a DMEM complete medium. 100 μL of cell suspension was sucked with a multichannel pipette and seeded into a 96-well plate and incubated in a constant temperature incubator at 37° C. with 5% CO2 for 24 h.
30 mL of DMEM complete medium was accurately measured, 30 μL of DMSO was added, and uniform mixing was conducted to prepare 0.1% DMSO medium. […] The kaempferol solution and the methyl ester solution having the above concentrations were uniformly mixed to prepare drug solutions having the desired ratio based on the mass ratio of kaempferol to methyl ester being 1:1, 1:2, 1:3, 1:4, 1:5, 5:1, 4:1, 3:1 and 2:1, 400 μL of each drug solution. 1 mg/mL of 5-fluorouracil solution was diluted to a concentration of 800, 600, 400, 200, 100, 50, 25 μg/mL, respectively, 400 μL of each drug solution.
The old medium in the 96-well plate in the item 2.3 was sucked out, and 100 μL of PBS buffer solution was added to each well to remove the loose, dead and senescent cells and their metabolic wastes. After that, the PBS buffer solution was sucked out. 100 μL of the prepared drug solution was added to each well, 3 wells in parallel. A negative control was set up, in which an equal volume of DMEM complete medium containing 0.1 vol % DMSO was added to each well, 3 wells in parallel. A blank control was a DMEM complete medium containing 0.1 vol % DMSO free of cells, 3 wells in parallel. The cells were incubated for 24 h in a constant temperature incubator at 37° C. with 5% CO2.
The DMEM complete medium containing 0.1 vol % DMSO in the drug solutions and negative control in the 96-well plate in the item 2.5 were sucked out. […]

[2] = test system: Solid tumor cell line S180; experiment: In-vivo anti-tumor experiment after S180 tumor inoculation in mice; parameters: species or system ICR mice; conditions: 9 days; for relative tumor weight mean ± SD: S180 tumor-bearing ICR mice; for inhibition rate: vs model group; for best dose for tumor inhibition: dose with the highest inhibition rate, gavage
Description: Solid tumor cell line S180 cryopreservation tube were taken out from a liquid nitrogen tank and quickly placed into water at 37° C. with occasional shaking. After cryopreserved cell mother liquor was thawed, the lid edge of the cryopreservation tube was wiped with an alcohol swab. The thawed cell liquor was injected intraperitoneally into the peritoneal cavities of ICR mice by a syringe. The mice were kept at room temperature of 25±5° C., humidity of 60±10%, natural light, and free to ingest food and water. After about one week, ascites in the peritoneal cavities of the ICR mice were sucked by a syringe and injected into the peritoneal cavities of new ICR mice at a dose of 0.5 ml per mouse for passage for standby application.
ICR class II mice, weighing about 18-22 g. Feeding conditions: room temperature of 25±5° C., humidity of 60±10%, natural light, free intake of water, and all mice were kept in the feeding environment for adaptive feeding for four days, fasted for 12 h before the experiment, free intake of water.
(§1) The experimental instruments were placed in a clean table and sterilized for about 30 min by turning on a UV lamp. The mice that were injected with ascites (about one week) were sacrificed by cervical dislocation, and abdomens of the mice were wiped with an alcohol swab. A 20 ml syringe was selected to suck the ascites (milky white is preferred) from the mice. The sucked ascites were placed in a sterile vial, and the vial was placed in a small box with ice. A certain amount of ascites was sucked onto a counting plate and placed under a microscope for counting, and the number of the cells was 10^7 as a base for tumor inoculation (1:2) and passage (1:5).
(§2) The adaptively fed ICR class II male mice were taken, and wiped with an alcohol swab on the armpit areas of the right forelimbs. The axillary cavities of the right forelimbs of the mice were inoculated with diluted mice ascite cell (10^7 cells) suspension at 0.2 ml per mouse. After tumor inoculation, the mice were fed and watered freely. One hour later, the drug was administered by gavage.
(§3) 168 ICR class II male mice with a weight of 18-22 g were used. The mice were kept under the conditions of the item 2.2 for adaptive feeding for four days before the experiment. After four days, the mice were weighed and their autonomy was measured. […] Each mouse was inoculated with S180 tumor according to the method in the item 2.3, and the drug was administered by gavage after inoculation.
(§4) A appropriate amount of test samples were weighed precisely, and prepared into test sample solutions having the desired concentrations by using a 5 vol % ethanol aqueous solution as a solvent, i.e.: the effective parts of 5 mg/kg, 10 mg/kg and 20 mg/kg correspond to the test sample solutions of the groups of the effective part 5, effective part 10, and effective part 20, respectively; E-6-O-(p-coumaroyl)scandoside methyl ester of 2.5 mg/kg, 5 mg/kg, 10 mg/kg, and 20 mg/kg correspond to the test sample solutions of the groups of methyl ester 2.5, methyl ester 5, methyl ester 10 and methyl ester 20, respectively; kaempferol-3-O-[2-O-(6-O-E-feruloyl)-β-D-glucopyranosyl]-β-D-galactopyranose of 2.5 mg/kg, 5 mg/kg, 10 mg/kg and 20 mg/kg correspond to the test sample solutions of the groups of kaempferol 2.5, kaempferol 5, kaempferol 10 and kaempferol 20, respectively. […] Each mouse was administered by gavage at a dose of 0.2 ml/10 g. During the administration period, the mice were fed at 3 g/mouse and ingested water and food freely. All mice were continuously administered for 9 days, and sacrificed by decapitation on day 10. Blood, tumor, liver, spleen, and thymus of mice were collected. The blood collected was placed in a low temperature environment and sent out for blood check. The weight of the tumor, liver, spleen, and thymus and the size of the tumor were recorded.

[3] = Spleen and thymus weight and blood count of S180 tumor-bearing mice; type: in vivo, ICR mice; conditions: for relative spleen weight compared with model group: FIG. 5; for relative thymus weight compared with model group: FIG. 6; for number of leukocytes compared with model group: FIG. 7; for percentage of lymphocytes compared with model group: FIG. 8
Description: as §3, §4
(§5) The recorded results were expressed as mean plus or minus standard deviation (X±SD), and the data were analyzed by using statistical software SPSS 11.5 software.

[4] = test system: Solid tumor cell line S180; experiment: In-vivo anti-tumor experiment of E-6-O-(p-coumaroyl)scandoside methyl ester and its metabolite p-coumaric acid (S180 tumor); parameters: species or system ICR mice; conditions: 10 mg/kg by gavage, 9 days; for relative tumor weight mean ± SD: S180 tumor-bearing ICR mice; for inhibition rate: vs model group
Description: as §1, §2
30 ICR class II male mice with a weight of 18-22 g were used. The mice were adaptively fed for four days under the conditions of the item 2.2 before the experiment. After four days, the mice were weighed and their autonomy was measured. The ICR mice were randomly divided into three groups, namely: a model group, methyl ester 10, p-coumaric acid 10, 10 mice in each group. Each mouse was inoculated with S180 tumor according to the method of the item 2.3, and the drug was administered by gavage after inoculation.
The appropriate amount of test samples were weighed precisely and prepared into test sample solutions having the desired concentrations by using a 5 vol % ethanol aqueous solution as a solvent, i.e.: E-6-O-(p-coumaroyl)scandoside methyl ester of 10 mg/kg; p-coumaric acid of 10 mg/kg. […] The blank group was given a solvent, the positive drug control group was given the cyclophosphamide solution, and the other groups were given the corresponding drugs and doses. Each mouse was administered by gavage at a dose of 0.2 ml/10 g. The mice were fed at 3 g/mouse and ingested water and food freely during the administration period. All mice were continuously administered for 9 days and sacrificed by decapitation on day 10. Blood, tumor, liver, spleen and thymus of the mice were collected. The blood obtained was placed in a low-temperature environment and sent out for blood check. The weight of the tumor, liver, spleen and thymus and the size of the tumor were recorded.
as §5

Compound	relative tumor weight mean ± SD ([2]; 2.5 mg/kg by gavage)	inhibition rate ([2]; 2.5 mg/kg by gavage)	relative tumor weight mean ± SD ([2]; 5 mg/kg by gavage)	inhibition rate ([2]; 5 mg/kg by gavage)	relative tumor weight mean ± SD ([2]; 10 mg/kg by gavage)	inhibition rate ([2]; 10 mg/kg by gavage)	relative tumor weight mean ± SD ([2]; 20 mg/kg by gavage)	inhibition rate ([2]; 20 mg/kg by gavage)	best dose for tumor inhibition [2]	relative spleen weight compared with model group ([3]; 5 mg/kg)	relative thymus weight compared with model group ([3]; 5 mg/kg)	number of leukocytes compared with model group ([3]; 5 mg/kg)	percentage of lymphocytes compared with model group ([3]; 5 mg/kg)	relative tumor weight mean ± SD [4]	inhibition rate [4]	inhibition rate ([1]; 1st measurement)	inhibition rate ([1]; 2nd measurement)	inhibition rate ([1]; 3rd measurement)	other results
O=c1[nH]cc(F)c(=O)[nH]1 [5-Fluorouracil, 5-fluorouracil]	–	–	–	–	–	–	–	–	–	–	–	–	–	–	–	–	–	–	inhibition at 25 µg/mL ([1]; Homo sapiens, HepG2, 25 μg/mL): 7.34%; inhibition at 50 µg/mL ([1]; Homo sapiens, HepG2, 50 μg/mL): 11.3%; inhibition at 100 µg/mL ([1]; Homo sapiens, HepG2, 100 μg/mL): 13.9%; inhibition at 200 µg/mL ([1]; Homo sapiens, HepG2, 200 μg/mL): 17.8%; inhibition at 400 µg/mL ([1]; Homo sapiens, HepG2, 400 μg/mL): 39.5%; inhibition at 600 µg/mL ([1]; Homo sapiens, HepG2, 600 μg/mL): 56.1%; inhibition at 800 µg/mL ([1]; Homo sapiens, HepG2, 800 μg/mL): 61.5%; inhibition at 1000 µg/mL ([1]; Homo sapiens, HepG2, 1000 μg/mL): 68%
COC(=O)C1=COC(O[C@@H]2O[C@H](CO)[C@@H](O)[C@H](O)[C@H]2O)C2C(CO)=CC(OC(=O)/C=C/c3ccc(O)cc3)C12 (stereo partly drawn) [Methyl ester, E-6-O-(p-coumaroyl)scandoside methyl ester]	6.49 ± 1.56* 10^−2	21.92%	4.24 ± 2.24* 10^−2	48.97%	5.81 ± 2.19* 10^−2	30.17%	5.98 ± 1.19* 10^−2	28.06%	5 mg/kg	increase	increase	significant increase; also recorded: highest	increased most significantly	4.65 ± 3.29* 10^−2	36.59%	7.558%	5.565%	7.273%	inhibition rate ([2]; 5 mg/kg by gavage, listed as E-6-O-(p-coumaroyl)scandoside methyl ester): 48.97%; number of erythrocytes compared among groups ([3]; 5 mg/kg): highest
O=P1(N(CCCl)CCCl)NCCCO1 (stereo not drawn) [Positive control, Cyclophosphamide, reference compound]	–	–	–	–	–	–	3.56 ± 0.77* 10^−2	57.19%	–	–	–	–	–	–	–	–	–	–	number of erythrocytes compared with model group ([3]; 20 mg/kg): lower; relative spleen weight compared with model group ([3]; 20 mg/kg): decrease; also recorded: lower; relative thymus weight compared with model group ([3]; 20 mg/kg): increase; number of leukocytes compared with model group ([3]; 20 mg/kg): significant decrease; also recorded: lower; percentage of lymphocytes compared with model group ([3]; 20 mg/kg): increase
O=C(O)/C=C/c1ccc(O)cc1 [p-coumaric acid, reference compound]	–	–	–	–	–	–	–	–	–	–	–	–	–	6.07 ± 2.91* 10^−2	17.20%	–	–	–	–
kaempferol-3-O-[2-O-(6-O-E-feruloyl)-β-D-glucopyranosyl]-β-D-galactopyranose	7.01 ± 1.56 10^−2	15.76%	4.49 ± 1.95 10^−2	45.96%	6.04 ± 2.78 10^−2	27.36%	5.59 ± 1.96 10^−2	32.75%	5 mg/kg	increase	increase	significant decrease	increase	–	–	18.7%	12.07%	19.28%	inhibition rate ([2]; 5 mg/kg by gavage, listed as kaempferol-3-O-[2-O-(6-O-E-feruloyl)-β-D-glucopyranosyl]-β-D-galactopyranose): 45.96%
